Data as given in article PMC9386018, “A lymphatic-absorbed multi-targeted kinase inhibitor for myelofibrosis therapy” (Nature Communications, 2022).
Values joined by “and” are separate entries in the source; they are usually repeats but may differ in a detail not shown here. Equal entries are not always repeated.

Legend:
[1] = biological target: Target kinase isoforms (PI3K, mTOR, RAF, MEK) (Homo sapiens, UniProt P42336); experiment: Target kinase isoforms 10-point IC50 determination (Supplementary Fig. 7); type: biochemical; details: PI3K alpha
Chain of Target kinase isoforms (PI3K, mTOR, RAF, MEK) (Homo sapiens, UniProt P42336) (P42336 whole entry, canonical isoform): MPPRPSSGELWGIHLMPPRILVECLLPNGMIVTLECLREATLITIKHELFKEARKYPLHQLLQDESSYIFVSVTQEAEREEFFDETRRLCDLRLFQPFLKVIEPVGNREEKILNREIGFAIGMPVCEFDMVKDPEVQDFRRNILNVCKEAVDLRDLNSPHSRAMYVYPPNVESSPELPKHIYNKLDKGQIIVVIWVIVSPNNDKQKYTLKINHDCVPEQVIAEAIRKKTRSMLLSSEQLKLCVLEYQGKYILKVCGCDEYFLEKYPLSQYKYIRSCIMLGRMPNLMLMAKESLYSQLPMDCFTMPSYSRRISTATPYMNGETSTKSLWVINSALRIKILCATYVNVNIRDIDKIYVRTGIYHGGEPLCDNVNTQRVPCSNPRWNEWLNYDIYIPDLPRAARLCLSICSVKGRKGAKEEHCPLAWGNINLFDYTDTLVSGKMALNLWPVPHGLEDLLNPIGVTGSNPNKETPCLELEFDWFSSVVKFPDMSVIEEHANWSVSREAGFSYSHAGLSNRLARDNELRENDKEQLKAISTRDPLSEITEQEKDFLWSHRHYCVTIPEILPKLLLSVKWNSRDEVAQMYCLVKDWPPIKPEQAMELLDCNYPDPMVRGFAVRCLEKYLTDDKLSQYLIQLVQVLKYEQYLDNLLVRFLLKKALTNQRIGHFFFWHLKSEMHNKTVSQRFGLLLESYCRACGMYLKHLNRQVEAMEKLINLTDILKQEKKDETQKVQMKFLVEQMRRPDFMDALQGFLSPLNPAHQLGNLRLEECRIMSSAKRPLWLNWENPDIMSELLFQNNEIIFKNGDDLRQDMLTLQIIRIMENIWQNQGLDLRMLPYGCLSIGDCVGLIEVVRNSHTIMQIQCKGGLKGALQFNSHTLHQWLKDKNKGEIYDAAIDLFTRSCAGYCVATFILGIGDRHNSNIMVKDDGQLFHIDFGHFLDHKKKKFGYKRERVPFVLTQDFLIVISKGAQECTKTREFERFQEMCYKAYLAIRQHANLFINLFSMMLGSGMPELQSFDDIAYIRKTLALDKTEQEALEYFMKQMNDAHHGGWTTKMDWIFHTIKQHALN
From the text: (§1) The average percent kinase inhibition from replicate data was ranked low to high, converted to a compatible identifier format, then input into Coral Human Kinome Visualization software for presentation analysis. […] Scaling of evolutionary distance for PI kinases is only relative and is based on literature analysis[62],[63]. Average percent kinome inhibition values from replicate data are supplied in Source Data file. […] Corrected data was normalized to vehicle treated control values, and dose response percent kinase activity was analyzed by non-linear regression for determination of IC50 values.

[2] = biological target: Target kinase isoforms (PI3K, mTOR, RAF, MEK) (Homo sapiens, UniProt P42345); experiment: as above; type: biochemical; details: mTOR
From the text: as §1

[3] = biological target: Target kinase isoforms (PI3K, mTOR, RAF, MEK) (Homo sapiens, UniProt P42338); experiment: as above; type: biochemical; details: PI3K beta
Chain of Target kinase isoforms (PI3K, mTOR, RAF, MEK) (Homo sapiens, UniProt P42338) (P42338 whole entry, canonical isoform): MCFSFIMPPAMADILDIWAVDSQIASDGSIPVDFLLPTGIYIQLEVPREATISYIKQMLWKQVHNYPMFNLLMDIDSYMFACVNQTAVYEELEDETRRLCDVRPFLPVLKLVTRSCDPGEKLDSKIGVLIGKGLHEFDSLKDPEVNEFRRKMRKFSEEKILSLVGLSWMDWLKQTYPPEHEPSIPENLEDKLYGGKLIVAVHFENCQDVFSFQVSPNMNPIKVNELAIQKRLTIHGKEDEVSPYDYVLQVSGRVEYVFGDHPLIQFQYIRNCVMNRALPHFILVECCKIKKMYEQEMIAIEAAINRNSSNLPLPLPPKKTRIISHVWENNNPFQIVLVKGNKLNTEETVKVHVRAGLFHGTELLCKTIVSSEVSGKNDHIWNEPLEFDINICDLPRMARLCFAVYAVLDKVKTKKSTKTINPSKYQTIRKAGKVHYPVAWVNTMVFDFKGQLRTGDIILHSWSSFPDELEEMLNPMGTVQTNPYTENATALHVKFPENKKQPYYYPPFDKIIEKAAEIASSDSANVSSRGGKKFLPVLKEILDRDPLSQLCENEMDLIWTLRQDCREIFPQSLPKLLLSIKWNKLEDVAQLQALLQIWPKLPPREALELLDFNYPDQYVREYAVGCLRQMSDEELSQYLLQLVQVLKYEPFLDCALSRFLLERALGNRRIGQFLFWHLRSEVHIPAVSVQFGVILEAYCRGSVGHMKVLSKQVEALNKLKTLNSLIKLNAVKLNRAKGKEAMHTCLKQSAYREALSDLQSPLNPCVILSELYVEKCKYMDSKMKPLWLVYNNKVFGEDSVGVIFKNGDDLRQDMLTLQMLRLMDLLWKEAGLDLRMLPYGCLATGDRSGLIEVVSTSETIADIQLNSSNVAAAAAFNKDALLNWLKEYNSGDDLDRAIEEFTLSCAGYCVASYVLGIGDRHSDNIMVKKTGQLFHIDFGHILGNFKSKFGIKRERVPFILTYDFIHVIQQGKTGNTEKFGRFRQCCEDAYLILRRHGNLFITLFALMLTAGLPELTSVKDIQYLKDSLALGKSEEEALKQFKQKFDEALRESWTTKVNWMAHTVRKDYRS
From the text: as §1

[4] = biological target: Target kinase isoforms (PI3K, mTOR, RAF, MEK) (Homo sapiens, UniProt P48736); experiment: as above; type: biochemical; details: PI3K gamma
Chain of Target kinase isoforms (PI3K, mTOR, RAF, MEK) (Homo sapiens, UniProt P48736) (P48736 whole entry, canonical isoform): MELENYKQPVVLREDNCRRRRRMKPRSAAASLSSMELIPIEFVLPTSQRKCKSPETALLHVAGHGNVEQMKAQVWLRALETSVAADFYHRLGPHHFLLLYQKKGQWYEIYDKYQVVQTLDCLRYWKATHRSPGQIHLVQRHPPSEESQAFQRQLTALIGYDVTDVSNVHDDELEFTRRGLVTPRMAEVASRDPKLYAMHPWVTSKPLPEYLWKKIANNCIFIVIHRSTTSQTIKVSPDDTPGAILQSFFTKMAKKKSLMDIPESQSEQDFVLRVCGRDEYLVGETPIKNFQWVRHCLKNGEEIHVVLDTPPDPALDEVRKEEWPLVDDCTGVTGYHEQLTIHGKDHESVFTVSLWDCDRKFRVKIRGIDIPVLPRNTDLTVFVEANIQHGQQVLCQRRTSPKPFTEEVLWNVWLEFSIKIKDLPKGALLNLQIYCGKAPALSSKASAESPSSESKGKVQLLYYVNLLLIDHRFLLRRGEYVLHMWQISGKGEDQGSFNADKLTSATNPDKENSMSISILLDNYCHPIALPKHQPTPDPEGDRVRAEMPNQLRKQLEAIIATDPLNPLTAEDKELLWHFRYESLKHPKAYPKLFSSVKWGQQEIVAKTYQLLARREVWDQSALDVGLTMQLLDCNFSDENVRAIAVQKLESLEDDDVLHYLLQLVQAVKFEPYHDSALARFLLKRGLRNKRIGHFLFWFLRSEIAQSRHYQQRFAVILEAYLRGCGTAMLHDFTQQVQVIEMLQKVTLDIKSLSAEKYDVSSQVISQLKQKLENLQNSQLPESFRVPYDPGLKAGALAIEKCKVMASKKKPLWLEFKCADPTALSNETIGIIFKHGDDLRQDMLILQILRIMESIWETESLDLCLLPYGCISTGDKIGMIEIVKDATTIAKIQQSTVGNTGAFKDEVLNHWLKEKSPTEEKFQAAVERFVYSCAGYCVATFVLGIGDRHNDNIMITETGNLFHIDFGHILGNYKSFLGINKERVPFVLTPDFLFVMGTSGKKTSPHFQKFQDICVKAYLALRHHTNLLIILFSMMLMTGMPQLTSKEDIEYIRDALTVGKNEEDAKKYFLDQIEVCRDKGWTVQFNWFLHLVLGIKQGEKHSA
From the text: as §1

[5] = Pharmacokinetic analysis of plasma after intravenous and oral dosing; details: Supplementary Figure 6a, i.v., individual replicates
Method: Samples were centrifuged at 15,000 rpm for 10 min, then blood plasma was collected from the upper layer and frozen at −80 °C until analysis. […] Sample processing, chromatographic separation, MS, and MS/MS parameters used for analysis were determined by the core. […] Standard curves for peak area ratio of compound to internal standard (Astd/AIstd) vs. compound concentration were used to determine sample analyte concentrations through linear regression with a weighting average of 1/X^2. […] All pharmacokinetic parameters were estimated using non-compartmental analysis with Phoenix/WINONLIN, and provided by the core along with calculated sample analyte concentrations. Data was generated from n ≥ 3 individual animals sampled per time point per compound for each method of dosing.

[6] = concentration 0.495 nM, 0.000495 µM
[7] = concentration 41.2 nM, 0.0412 µM
[8] = concentration 1.52 nM, 0.00152 µM
[9] = concentration 4.57 nM, 0.00457 µM

SMILES: O=C(NOCCOCCOCCOCCC(=O)N1CCN(c2cnc3ccc(-c4cnc(Cl)c(NS(=O)(=O)c5ccc(F)cc5)c4)cc3n2)CC1)c1ccc(F)c(F)c1Nc1ccc(I)cc1F [LP-182, N-(2-(2-(2-(3-(4-(7-(6-chloro-5-((4-fluorophenyl)sulfonamido)pyridin-3-yl)quinoxalin-2-yl)piperazin-1-yl)-3-oxopropoxy)ethoxy)ethoxy)ethoxy)-3,4-difluoro-2-((2-fluoro-4-iodophenyl)amino)benzamide]
- Kinase Activity (%) PI3K alpha ([1]; concentration 0.0188 nM, 18.8 pM): 97% and 99% and 100% and 98% and 76% and 90%
- Kinase Activity (%) PI3K alpha ([1]; concentration 0.0564 nM, 56.4 pM): 93% and 98% and 99% and 108% and 106% and 80% and 82% and 89%
- Kinase Activity (%) PI3K alpha [1, 6]: 79%
- activity at 0.00457 µM ([1]; concentration 4.57 nM): 27%
- Kinase Activity (%) PI3K alpha [1, 7]: 4% and 6% and 8% and 9% and 5% and 10% and 7%
- Kinase Activity (%) PI3K alpha ([1]; concentration 123 nM, 0.123 µM): 1% and 3% and 4% and 2% and 6%
- Kinase Activity (%) PI3K alpha ([1]; concentration 1110 nM, 1.11 µM): 0% and 1%
- Kinase Activity (%) PI3K alpha ([1]; concentration 3330 nM, 3.33 µM): 1% and 0% and 2%
- Kinase Activity (%) PI3K alpha ([1]; concentration 10000 nM, 10 µM): 5% and 0% and 3% and 1%
- activity at 0.000495 µM ([2]; concentration 0.495 nM): 95%
- Kinase Activity (%) mTOR [2, 6]: 99% and 98% and 101% and 94% and 96%
- activity at 0.00152 µM ([2]; concentration 1.52 nM): 97%
- Kinase Activity (%) mTOR [2, 8]: 99% and 100% and 94%
- activity at 0.00457 µM ([2]; concentration 4.57 nM): 91%
- Kinase Activity (%) mTOR [2, 9]: 92% and 94% and 87% and 88%
- activity at 0.0412 µM ([2]; concentration 41.2 nM): 52%
- Kinase Activity (%) mTOR [2, 7]: 63% and 57% and 47%
- activity at 0.123 µM ([2]; concentration 123 nM): 29%
- Kinase Activity (%) mTOR ([2]; concentration 123 nM, 0.123 µM): 30% and 32% and 31%
- activity at […] ([2]; concentration 370 nM): 13%
- Kinase Activity (%) mTOR ([2]; concentration 1110 nM, 1.11 µM): 4% and 3% and 5% and 1% and 2%
- Kinase Activity (%) mTOR ([2]; concentration 3330 nM, 3.33 µM): 0% and -1% and -2%
- Kinase Activity (%) mTOR ([2]; concentration 10000 nM, 10 µM): 2% and -1% and 1%
- Kinase Activity (%) PI3K beta [3, 6]: 105% and 85% and 110% and 102% and 121% and 113%
- Kinase Activity (%) PI3K beta [3, 8]: 95% and 99% and 101% and 103% and 119% and 118%
- Kinase Activity (%) PI3K beta [3, 9]: 89% and 94% and 105% and 106% and 117% and 114%
- Kinase Activity (%) PI3K beta [3, 7]: 80% and 74% and 95% and 101% and 98% and 107%
- Kinase Activity (%) PI3K beta ([3]; concentration 123 nM, 0.123 µM): 63% and 51% and 71% and 72% and 84%
- activity at 3.33 µM ([3]; concentration 3330 nM): 16%
- Kinase Activity (%) PI3K beta ([3]; concentration 3330 nM, 3.33 µM): 24% and 12% and 13% and 14%
- Kinase Activity (%) PI3K beta ([3]; concentration 10000 nM, 10 µM): 13% and 5% and 3%
- activity at 0.123 µM ([4]; concentration 123 nM): 20%
- activity at […] ([4]; concentration 370 nM): 6%
- Kinase Activity (%) PI3K gamma ([4]; concentration 1110 nM, 1.11 µM): 1% and 3% and 4% and 0%
- Kinase Activity (%) PI3K gamma ([4]; concentration 3330 nM, 3.33 µM): 0% and 1%
- Kinase Activity (%) PI3K gamma ([4]; concentration 10000 nM, 10 µM): 4% and 0% and 2%
- Concentration ([5]; Time 0.167 h): 11100 ng/mL and 8270 ng/mL and 5220 ng/mL
- Concentration ([5]; Time 0.5 h): 807 ng/mL and 646 ng/mL
- Concentration ([5]; Time 1 h): 451 ng/mL and 857 ng/mL
- Concentration ([5]; Time 2 h): 275 ng/mL and 179 ng/mL
- Concentration ([5]; Time 4 h): 141 ng/mL and 75.9 ng/mL
- Concentration ([5]; Time 7 h): 51.4 ng/mL and 34.3 ng/mL
- Concentration ([5]; Time 16 h): 30.6 ng/mL and 29.3 ng/mL and 5.58 ng/mL
